Measurements: patent publication US20180280517A1, “Nanocomposite, a Preparation Method Thereof and Method for Treating Cancer Using the Same” (National Chiao Tung University, priority 2017, published 2018)

Key:
A549 = A549 cell viability / combination index; format: cell-based; details: Homo sapiens
Source text: (§1) The combination index or CI means a value acquired through a calculation based on the Combination Index Theorem. From CI value, the interaction between components within a drug having multiple components can be understood. For example, the CI value quantitatively defines synergism (CI<1), additive effect (CI=1), and antagonism (CI>1) among components.
(§2) The expression fraction affected (Fa) means the fraction affected of a component according to Median-Effect Principle. A CI-Fa plot can be used to define the synergism and antagonism relation between different components.
In another preferable embodiment, A549 cells, which are selected as cancer cell model, are respectively incubated with DMC, GEM, CHC/DMC, and CHC/GEM. In Table 4, DMC or GEM encapsulated by CHC has smaller IC50 comparing to those without CHC encapsulation, proving that an anti-cancer component encapsulated by CHC has higher toxic effect to the cells.
In an embodiment, a plurality of CHC/DMC-GEM having different DMC to GEM ratios including 1:2.5, 1:5, 1:10, and 1:20 are respectively incubated with A549 to find a drug ratio with better synergistic effect. After calculation, a CI versus Fa plot is shown in FIG. 7 based on the viability of A549 cells. […]

A549-ON = A549-ON cell viability / combination index; format: cell-based
Source text: as §1, §2
In a preferable embodiment, A549-ON is chosen as the cancer cell model. A549-ON is incubated with DMC, GEM, CHC/DMC, and CHC/GEM respectively to observe cell viability. In Table 3, DMC and GEM encapsulated by CHC has smaller IC50 comparing to those without CHC encapsulation, providing that an anti-cancer component encapsulated by CHC has higher toxic effect to the cells.
In an embodiment, a plurality of CHC/DMC-GEM having different DMC to GEM ratio including 1:1.2, 1:5, 1:12, and 1:25 are respectively incubated with A549-ON to find a component ratio with better synergistic effect. […]

| Structure (SMILES) | IC50 (A549) [µg/mL] | IC50 (A549-ON) [µg/mL] |
| --- | --- | --- |
| COc1cc(/C=C/C(O)=C/C(=O)/C=C/c2ccc(O)cc2)ccc1O [DMC, Demethoxycurcumin] | 10.3 | 10 |
| Nc1ccn([C@@H]2O[C@H](CO)[C@@H](O)C2(F)F)c(=O)n1 [GEM, Gemcitabine] | 117 | 117 |
